According to paper PMC9736281, “Flavonoid Constituents and Alpha-Glucosidase Inhibition of Solanum stramonifolium Jacq. Inflorescence with In Vitro and In Silico Studies” (Molecules, 2022):
≈ marks a conversion by molar mass, not a printed value. Like-named read-outs stand apart in the source and are kept apart here.

Tests used:
alpha-glucosidase enzyme [1] = assay: Alpha-glucosidase inhibitory activity, enzymatic assay with pNPG; type: biochemical, Saccharomyces cerevisiae; settings: for IC50: purchased standards, DMSO co-solvent not more than 5%
Protocol: All extracts and isolated compounds were examined for their alpha-glucosidase inhibitory activity according to Dej-adisai and Pitakput, 2015 [23]. Briefly, 0.01 M phosphate buffer (50 μL), samples or standard solution (50 μL), and alpha-glucosidase enzyme solution (50 μL) were added to the well plate. The mixture solution was incubated at 37 °C for 2 min. Next, para-nitrophenyl-α-D-glucopyranoside solution (50 μL) was added. The enzymatic inhibition was evaluated from the yellow final product, p-nitrophenol (pNP). The color of the reaction was detected by visible light at 405 nm of SPECTROstar Nano spectrophotometer (BMG Labtech, Ortenberg, Germany). The product absorption was converted to velocity (V) by using Equation (1). Then, the velocity was used to calculated the percentage of inhibition by Equation (2). Furthermore, the ability of sample was performed by IC50 value, which was generated from the calibration curve of percentages of inhibition at five different sample concentrations. Velocity = ∆ Absorbance at 405 nm/∆ Time(1) % Inhibition = [(Vcontrol − Vsample)/Vcontrol] × 100(2)

alpha-glucosidase enzyme [2] = assay: Enzyme kinetic study (Lineweaver-Burk plot, secondary plot); type: biochemical, Saccharomyces cerevisieae
Protocol: To determine the mode of inhibition, the enzyme kinetic procedure was performed as described by Sakulkeo et al.. The double reciprocal Lineweaver–Burk plot was constructed and used for the mode of action determination. The inhibition constant (Ki) was conducted from the secondary plot. Briefly, the 5 concentrations of substrate pNPG (2.5–0.125 mM), the enzyme from Saccharomyces cerevisieae (EC 3.2.1.20) at 1 unit/mL, and 3 concentrations of sample were tested in triplicate.

alpha-glucosidase enzyme [3] = settings: cited from earlier work

## C[C@H]1O[C@H](O[C@H]2[C@H](O)[C@@H](O)[C@@H](O[C@H]3[C@H](O)[C@@H](O)C(O)O[C@@H]3CO)O[C@@H]2CO)[C@H](O)[C@@H](O)[C@@H]1N[C@H]1C=C(CO)[C@@H](O)[C@H](O)[C@H]1O (stereo partly drawn) [Acarbose, acarbose, reference compound]
alpha-glucosidase enzyme [1]; alpha-glucosidase
  % Inhibition at 200 μg/mL: 45.27 ± 4.5%
  % Inhibition at 400 μg/mL: 60.78 ± 3.61%
alpha-glucosidase enzyme [1]; alpha-glucosidase, sample at 2 mg/mL
  % Inhibition at 2 mg/mL: 76.44 ± 3.06%
alpha-glucosidase enzyme [2]
  Inhibition Type: Competitive

## COc1cc(O)c2c(=O)c(OC)c(-c3cc(O)c(OC)c(OC)c3)oc2c1 [Compound 1, myricetin 3, 4′, 5′, 7-tetramethyl ether]
alpha-glucosidase enzyme [1]; alpha-glucosidase
  % Inhibition at 400 μg/mL: 12.78 ± 4.89%

## COc1cc(O)c2c(=O)c(OC)c(-c3cc(OC)c(OC)c(OC)c3)oc2c1 [Compound 2, 5-hydroxy-3,7,3′,4′,5′-pentamethoxyflavone]
alpha-glucosidase enzyme [1]; alpha-glucosidase
  % Inhibition at 400 μg/mL: 8.51 ± 3.79%

## O=c1c(O)c(-c2ccc(O)cc2)oc2cc(O)cc(O)c12 [Compound 3, kaempferol]
alpha-glucosidase enzyme [1]; alpha-glucosidase
  % Inhibition at 400 μg/mL: 13.01 ± 2.69%
alpha-glucosidase enzyme [1]
  IC50: 585.63 µg/mL (≈ 2050 µM)
alpha-glucosidase enzyme [3]; ref [13],[14]
  Inhibition Type: mixed-type
alpha-glucosidase enzyme [3]; ref [15]
  Inhibition Type: non-competitive
alpha-glucosidase enzyme [2]; listed as Kaempferol
  Inhibition Type: Mixed
alpha-glucosidase enzyme [2]; listed as kaempferol
  Inhibition Type: mixed-type

## O=c1c(O)c(-c2ccc(O)cc2)oc2cc(O[C@@H]3O[C@H](CO)[C@@H](O)[C@H](O)[C@H]3O)cc(O)c12 [Compound 4, kaempferol 7-O-β-glucopyranoside]
alpha-glucosidase enzyme [1]; alpha-glucosidase
  % Inhibition at 400 μg/mL: 7.68 ± 0.33%

## COc1cc(O)c2c(=O)c(OC)c(-c3cc(OC)c(OC)c(OC4OC(CO)C(O)C(O)C4O)c3)oc2c1 (stereo not drawn) [Compound 5, 5-hydroxy 3-7-4′-5′-tetramethoxyflavone-3′-O-glucopyranoside]
alpha-glucosidase enzyme [1]; alpha-glucosidase
  % Inhibition at 200 μg/mL: 0.84 ± 0.21%

## O=c1c(OC2O[C@H](CO)[C@@H](O)[C@H](O)[C@H]2O)c(-c2ccc(O)cc2)oc2cc(O)cc(O)c12 (stereo partly drawn) [Compound 6b, kaempferol 3-O-glucopyranoside]
alpha-glucosidase enzyme [1]
  IC50: >600 µg/mL
alpha-glucosidase enzyme [3]; ref [16]
  Inhibition Type: non-competitive
alpha-glucosidase enzyme [2]; listed as Astragalin
  Inhibition Type: Mixed
alpha-glucosidase enzyme [2]; listed as astragalin
  Inhibition Type: mixed-type
